Patent US4734416A, “Pharmaceutically useful carbostyril derivatives” (Otsuka Pharmaceutical Co., Ltd., priority 1978, dated 1988)
Structures can show the parent of a compound that is named as a salt.

Legend:
[1] = biological target: T1, enucleated ileum of a guinea pig (Cavia porcellus, UniProt P31389); test: Antihistamine activity test in vitro (enucleated guinea pig ileum, histamine retraction, pA2 by Van Rossam method); conditions: 10^-6 g/ml test compound, 5 minutes before histamine, 36° C.
T1 construct: the tissue of ileum is cut to a length of 2.5 to 3.0 cm and suspended in an organ bath; from tissue; host or cells: isolated ileum from the ileocecal region of male guinea pig
Description: As to the test method for determining antihistamine activity of a compound in vitro, a method of using an enucleated ileum of a guinea pig is generally accepted.
A male guinea pig having 300 to 500 g body weight is killed by blood letting. An ileum having a length of 15 cm being enculeated from the ileocecal region is dipped into Tyrode's solution (which is prepared from […], 0.2 g of KCl, 0.2 g of CaCl2, 1.0 g of glucose, 1.0 g of NaHCO3, 0.065 g of NaHPO4.2H2 O and 0.2135 g of MgCl2.6H2 O to make 1000 ml in total volume by adding water). Then the tissue of ileum is cut to a length of 2.5 to 3.0 cm and suspended in an organ bath filled with 30 ml of Tyrode's solution. The organ bath is kept at a temperature of 36° C. and a mixed gas consisting of 5% of CO2 and 95% of O2 is blown into the bath. 10 Minutes after the blowing, 10^-6 M of histamine is added to the bath to examine the sensitivity of the tissue and a reaction curve (control) with respect to the dosage of histamine is obtained. After the dosage of histamine-reaction curve (control) becomes constant, 10^-6 g/ml of a compound to be tested is added to the bath and further histamine is added 5 minutes later to obtain a dosage-reaction curve. Retraction of the ileum is recorded on a pen-recorder through an isotonic transducer [TD-112S manufactured by Nihon Koden]. Antihistamine activity of the test compound is determined as pA2 value by the "Van Rossam" method [J. M. Van Rossam; Arch. Inst. Pharmacodyn., 143, 299 (1963)] wherein the maximum retraction of ileum caused by histamine shown in the control curve is 100%.

[2] = Halothane anesthesia increasing activity (righting reflex); format: in vivo, mouse (male, ddy-strain); conditions: oral; for Time (minutes) between introduction of anesthesia and waking: 8 mg/kg, 1 hour before 4% Halothane
Description: Male mice of ddy-strain having about 20 g body weight are used. One test group consists of 10 mice. An aqueous Gummi Arabicum suspension of test compound (80 mg of a compound to be tested and 1 g of Gummi Arabicum/100 ml of physiological NaCl solution) is administered orally to each mouse at the dosage of 8 mg of test compound/kg body. One hour after the administration, each mouse is placed in a gas respiration chamber (13×13×24 cm) and oxygen gas containing 4% of Halothane [2-bromo-2-chloro-1,1,1-trifluoroethane] is blown into the chamber at the velocity of 2 l/min for 3 minutes. A mouse anaesthetized is taken out from the chamber and the time between the introduction of anesthesia to waking is measured by righting reflex as the index. To mice of the control group, 1% Gummi Arabicum aqueous physiological solution is orally administered at the dosage of 0.1 ml/10 g body. [Reference: M. J. Turnbull and J. W. Watkins: Br. J. Pharmac., 58, 27-35 (1976)]
Same procedures as mentioned in (II)-(A) are employed, except that the amount of test compound to be orally administered is changed in 4 steps at the dosage of 0.5 mg/kg, 1 mg/kg, 2 mg/kg and 4 mg/kg respectively to measure the relationship between the dosage and degree of strength of anesthesia increasing activity.

T1 sequence (P31389 whole entry): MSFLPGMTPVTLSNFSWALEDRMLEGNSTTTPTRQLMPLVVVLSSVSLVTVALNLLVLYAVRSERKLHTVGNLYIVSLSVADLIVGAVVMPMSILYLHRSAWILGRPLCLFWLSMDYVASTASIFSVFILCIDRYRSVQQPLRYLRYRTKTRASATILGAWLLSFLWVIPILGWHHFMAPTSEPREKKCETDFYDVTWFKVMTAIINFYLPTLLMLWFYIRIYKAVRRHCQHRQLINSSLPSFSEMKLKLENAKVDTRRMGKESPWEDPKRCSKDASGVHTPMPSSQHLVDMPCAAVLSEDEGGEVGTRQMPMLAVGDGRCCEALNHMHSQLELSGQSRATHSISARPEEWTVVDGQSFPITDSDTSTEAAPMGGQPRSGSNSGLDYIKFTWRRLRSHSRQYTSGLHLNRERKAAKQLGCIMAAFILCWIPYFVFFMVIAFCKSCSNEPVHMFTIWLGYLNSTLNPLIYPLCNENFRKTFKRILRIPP

| Structure (SMILES) | Kb [1] [nM] | Time (minutes) between introduction of anesthesia and waking [2] [min] | also measured |
| --- | --- | --- | --- |
| O=C1CCc2c(cccc2OCC(O)CN2CCN(c3ccccc3)CC2)N1 (stereo not shown) [Compound 1, 5-[2-Hydroxy-3-(4-phenylpiperazinyl)propoxy]-3,4-dihydrocarbostyril monohydrochloride] | 8.32 | 9.3 ± 4.9 |  |
| O=C1CCc2ccc(OCC(O)CN3CCN(c4ccccc4)CC3)cc2N1 (stereo not shown) [Compound 2, 7-[2-Hydroxy-3-(4-phenylpiperazinyl)propoxy]-3,4-dihydrocarbostyril monohydrochloride] | 17.8 | 11.7 ± 5.6 |  |
| O=C1CCc2c(OCC(O)CN3CCN(c4ccc(Cl)cc4)CC3)ccc(Cl)c2N1 (stereo not shown) [Compound 3, 8-Chloro-5-{2-hydroxy-3-[4-(4-chlorophenyl)piperazinyl]propoxy}-3,4-dihydrocarbostyril monohydrochloride] | 4.9 | 7.9 ± 3.4 |  |
| O=C1CCc2c(c(Cl)cc(Cl)c2OCC(O)CN2CCN(c3ccccc3)CC2)N1 (stereo not shown) [Compound 4, 6,8-Dichloro-5-[2-hydroxy-3-(4-phenylpiperazinyl)propoxy]-3,4-dihydrocarbostyril monohydrochloride] | 1.12 | 7.4 ± 2.7 |  |
| O=C1CCc2c(OCC(O)CN3CCN(c4ccccc4)CC3)cccc2N1Cc1ccccc1 (stereo not shown) [Compound 8, 1-Benzyl-5-[2-hydroxy-3-(4-phenylpiperazinyl)propoxy]-3,4-dihydrocarbostyril monohydrochloride] | 0.0158 | 7.5 ± 3.3 |  |
| Cc1ccc(N2CCN(CCCCOc3cccc4c3CCC(=O)N4)CC2)cc1 [Compound 10, 5-{4-[4-(4-Methylphenyl)piperazinyl]butoxy}-3,4-dihydrocarbostyril] | 1.26 | 7.9 ± 3.7 |  |
| C=CCN1C(=O)CCc2c(OCC(O)CN3CCN(c4ccc(C)cc4)CC3)cccc21 (stereo not shown) [Compound 11, 1-Allyl-5-{2-hydroxy-3-[4-(4-methylphenyl)piperazinyl]propoxy}-3,4-dihydrocarbostyril] | 0.617 | 6.8 ± 2.2 |  |
| O=C1CCc2ccc(OCCCN3CCN(c4ccccc4)CC3)cc2N1Cc1ccccc1 [Compound 12, 1-Benzyl-7-[3-(4-phenylpiperazinyl)propoxy]-3,4-dihydrocarbostyril] | 6.17 | 7.5 ± 3.5 |  |
| Cc1cc(=O)[nH]c2cc(OCCCN3CCN(c4ccccc4)CC3)ccc12 [Compound 13, 4-Methyl-7-[3-(4-phenylpiperazinyl)propoxy]carbostyril] | 0.407 | 8.1 ± 2.7 |  |
| O=C1CCc2ccc(OCCCN3CCN(Cc4ccccc4)CC3)cc2N1 [Compound 14, 7-[3-(4-Benzylpiperazinyl)propoxy]-3,4-dihydrocarbostyril] | 0.794 | 7.5 ± 4.3 |  |
| Cc1ccc(N2CCN(CCCOc3ccc4c(c3)NC(=O)CC4)CC2)cc1 [Compound 15, 7-{3-[4-(4-Methylphenyl)piperazinyl]propoxy}-3,4-dihydrocarbostyril] | 0.331 | 12.7 ± 3.5 |  |
| O=C1CCc2ccc(OCCCN3CCN(c4ccc(Cl)cc4)CC3)cc2N1 [Compound 16, 7-{3-[4-(4-Chlorophenyl)piperazinyl]propoxy}-3,4-dihydrocarbostyril] | 0.234 | 11.4 ± 5.6 |  |
| CC1CN(CCCOc2ccc3c(c2)NC(=O)CC3)CCN1c1ccc(Cl)cc1 (stereo not shown) [Compound 18, 7-{3-[3-Methyl-4-(4-chlorophenyl)piperazinyl]propoxy}-3,4-dihydrocarbostyril dihydrochloride] | 2.19 | 8.4 ± 2.5 |  |
| O=C1CCc2cccc(OCCCN3CCN(c4ccccc4)CC3)c2N1 [Compound 19, 8-[3-(4-Phenylpiperazinyl)propoxy]-3,4-dihydrocarbostyril] | 10.2 | 9.3 ± 3.5 |  |
| CC(=O)OC(COc1cccc2c1CCC(=O)N2)CN1CCN(c2ccccc2)CC1 (stereo not shown) [Compound 20, 5-[2-Acetyloxy-3-(4-phenylpiperazinyl)propoxy]-3,4-dihydrocarbostyril] | 1.23 | 9.8 ± 3.7 |  |
| COc1cc(C(=O)OC(COc2cccc3c2CCC(=O)N3)CN2CCN(c3ccccc3)CC2)cc(OC)c1OC (stereo not shown) [Compound 21, 5-[2-(3,4,5-Trimethoxybenzoyloxy)-3-(4-phenylpiperazinyl)propoxy]-3,4-dihydrocarbostyril] | 0.912 | 8.1 ± 3.9 |  |
| COc1ccccc1N1CCN(CCCOc2ccc3ccc(=O)[nH]c3c2)CC1 [Compound 22, 7-{3-[4-(2-Methoxyphenyl)piperazinyl]propoxy}-carbostyril dihydrochloride] | 11.7 | 10.4 ± 4.1 |  |
| CC(C)N1C(=O)CCc2ccc(OCCCN3CCN(c4ccccc4)CC3)cc21 [Compound 23, 1-(2-Propyl)-7-[3-(4-phenylpiperazinyl)propoxy]-3,4-dihydrocarbostyril dihydrochloride] | 0.589 | 7.6 ± 4.2 |  |
| O=C1CCc2ccc(OCCCN3CCN(c4cccc(F)c4)CC3)cc2N1 [Compound 24, 7-{3-[4-(3-Fluorophenyl)piperazinyl]propoxy}-3,4-dihydrocarbostyril] | 0.257 | 11.6 ± 6.7 |  |
| CC(COc1ccc2c(c1)NC(=O)CC2)CN1CCN(c2ccccc2)CC1 (stereo not shown) [Compound 25, 7-[2-Methyl-3-(4-phenylpiperazinyl)propoxy]-3,4-dihydrocarbostyril] | 0.617 | 7.8 ± 3.3 |  |
| O=c1cc(OCCCN2CCN(c3ccccc3)CC2)c2ccccc2[nH]1 [Compound 26, 4-[3-(4-Phenylpiperazinyl)propoxy]carbostyril] | 2.19 | 8.5 ± 3.7 |  |
| O=c1cc(-c2ccccc2)c2ccc(OCCCN3CCN(c4ccccc4)CC3)cc2[nH]1 [Compound 27, 4-Phenyl-7-[3-(4-phenylpiperazinyl)propoxy]carbostyril] | 0.977 | 7.8 ± 3.2 |  |
| CCCCCCN1C(=O)CCc2ccc(OCCCN3CCN(c4ccccc4)CC3)cc21 [Compound 38, 1-Hexyl-7-[3-(4-phenylpiperazinyl)propoxy)]-3,4-dihydrocarbostyril dihydrochloride] | 1.17 |  |  |
| CCCC(C)C1(CC)C(=O)NC(=O)NC1=O (stereo not shown) [Pentobarbital, reference compound] |  |  | Anesthesia increasing activity ([2]; 0.5 mg/kg): 5.3 ± 2.6 min; Anesthesia increasing activity ([2]; 1 mg/kg): 4.9 ± 3.5 min; Anesthesia increasing activity ([2]; 2 mg/kg): 6.3 ± 2.3 min; Anesthesia increasing activity ([2]; 4 mg/kg): 8.1 ± 3.1 min |
